Source: the Kinase Knowledgebase extract (Sharma et al. 2016)

These molecules were tested against MAPK14 (human) (UniProt Q16539) (assay: Inhibition of MAPK14 Kinase Activity).
Chain of MAPK14 (human) (Q16539 whole entry, looked up): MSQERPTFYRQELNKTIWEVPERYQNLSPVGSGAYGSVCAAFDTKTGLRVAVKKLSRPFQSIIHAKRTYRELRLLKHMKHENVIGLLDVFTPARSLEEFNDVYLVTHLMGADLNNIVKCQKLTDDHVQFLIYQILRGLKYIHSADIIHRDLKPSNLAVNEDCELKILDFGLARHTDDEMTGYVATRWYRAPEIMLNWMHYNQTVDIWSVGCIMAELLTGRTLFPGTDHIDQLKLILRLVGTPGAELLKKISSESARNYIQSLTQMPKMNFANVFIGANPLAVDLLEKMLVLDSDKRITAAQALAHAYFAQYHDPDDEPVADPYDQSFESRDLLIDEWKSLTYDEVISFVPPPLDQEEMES

| Structure (SMILES) | IC50 [µM] |
| --- | --- |
| CCc1cnc2[nH]cc(C(=O)c3cccc(OC)c3)c2c1 | ≤ 10 |
| Nc1cccc(-c2cnc3[nH]cc(C(=O)c4ccc5nsnc5c4)c3c2)c1 | ≤ 10 |
| O=C(c1cc(F)ccc1F)c1c[nH]c2ncc(-c3ccsc3)cc12 | ≤ 10 |
| O=C(c1c(F)ccc(NS(=O)(=O)c2ccccc2)c1F)c1c[nH]c2ncc(-c3cccnc3)cc12 | ≤ 10 |
| O=C(O)C=Cc1cccc(-c2cnc3[nH]cc(C(=O)c4cc(O)ccc4F)c3c2)c1 | ≤ 10 |
| Fc1ccc(/C=C/c2ccnc3[nH]ccc23)cc1 | ≤ 10 |
| O=C(c1cc(O)ccc1F)c1c[nH]c2ncc(-c3ccsc3)cc12 | ≤ 10 |
| O=S(=O)(NCc1c[nH]c2ncccc12)c1ccc(N2CCOCC2)nc1 | ≤ 10 |
| CCCS(=O)(=O)Nc1ccc(F)c(C(=O)c2c[nH]c3ncc(-c4cccnc4)cc23)c1F | ≤ 10 |
| CS(=O)(=O)Nc1ccc(F)c(C(=O)c2c[nH]c3ncc(-c4cccnc4)cc23)c1 | ≤ 10 |
| Cc1c(O)cccc1C(=O)c1c[nH]c2ncc(-c3cccs3)cc12 | ≤ 10 |
| COc1ccc(F)c(C(=O)c2c[nH]c3ncc(-c4cccnc4)cc23)c1 | ≤ 10 |
| O=C(c1ccccc1F)c1c[nH]c2ncc(-c3ccccn3)cc12 | ≤ 10 |
| CS(=O)(=O)Nc1cccc(-c2cnc3[nH]cc(C(=O)c4c(Cl)ccc(NS(C)(=O)=O)c4F)c3c2)c1 | ≤ 10 |
| CS(=O)(=O)Nc1ccc(F)c(C(=O)c2c[nH]c3ncc(-c4ccccc4)cc23)c1F | ≤ 10 |
| O=C(c1cc(O)ccc1F)c1c[nH]c2ncc(Br)cc12 | ≤ 10 |
| NC(=O)c1ccc(-c2cnc3[nH]cc(C(=O)c4cccc(O)c4)c3c2)cc1 | ≤ 10 |
| O=S(=O)(NCc1c[nH]c2ncccc12)c1cc(Cl)c(Cl)s1 | ≤ 10 |
| CS(=O)(=O)Nc1ccc(F)c(C(=O)c2c[nH]c3ncc(-c4ccccc4)cc23)c1 | ≤ 10 |
| CS(=O)(=O)Nc1ccc(F)c(C(=O)c2c[nH]c3ncc(-c4cccc(C(N)=O)c4)cc23)c1F | ≤ 10 |
| Cc1c(NS(C)(=O)=O)cccc1C(=O)c1c[nH]c2ncc(-c3ccccc3)cc12 | ≤ 10 |
| O=C(c1cccc(NCc2ccccc2)c1)c1c[nH]c2ncccc12 | ≤ 10 |
| c1cnc2ccc(Nc3ccnc4[nH]ccc34)cc2c1 | ≤ 10 |
| CS(=O)(=O)Nc1ccc(Cl)c(C(=O)c2c[nH]c3ncc(-c4cccnc4)cc23)c1F | ≤ 10 |
| O=C(c1cccc(Cl)c1Cl)c1c[nH]c2ncc(-c3cccnc3)cc12 | ≤ 10 |
| O=C(c1cccc(O)c1F)c1c[nH]c2ncc(-c3cccs3)cc12 | ≤ 10 |

| Structure (SMILES) | IC50 [µM] |
| --- | --- |
| Cn1cc(C(F)(F)F)c(-c2ccc(S(=O)(=O)NCc3c[nH]c4ncccc34)s2)n1 | ≤ 10 |
| O=C(c1c(F)ccc(NCc2ccccc2)c1F)c1c[nH]c2ncc(-c3cccnc3)cc12 | ≤ 10 |
| CS(=O)(=O)Nc1ccc(Cl)c(C(=O)c2c[nH]c3ncc(-c4cccc(S(C)(=O)=O)c4)cc23)c1F | ≤ 10 |
| Cc1ccc(F)cc1C(=O)c1c[nH]c2ncc(-c3ccc(C(N)=O)cc3)cc12 | ≤ 10 |
| Cc1nc(-c2ccnc3[nH]ccc23)no1 | ≤ 10 |
| O=C(c1cc(O)ccc1F)c1c[nH]c2ncccc12 | ≤ 10 |
| Oc1cccc(Cc2c[nH]c3ncc(-c4ccsc4)cc23)c1 | ≤ 10 |
| O=C(c1c(F)ccc(NS(=O)(=O)c2ccccc2)c1F)c1c[nH]c2ncc(Br)cc12 | ≤ 10 |
| O=C(c1cccc(O)c1F)c1c[nH]c2ncc(-c3cncnc3)cc12 | ≤ 10 |
| CS(=O)(=O)Nc1ccc(F)c(C(=O)c2c[nH]c3ncc(-c4cccnc4)cc23)c1F | ≤ 10 |
| CS(=O)(=O)c1cccc(-c2cnc3[nH]cc(C(=O)c4cc(O)ccc4F)c3c2)c1 | ≤ 10 |
| COc1cc(O)cc(Cc2c[nH]c3ncc(-c4ccsc4)cc23)c1 | ≤ 10 |
| O=C(c1cccc(O)c1F)c1c[nH]c2ncc(-c3cccnc3)cc12 | ≤ 10 |
| O=C(c1c(F)ccc(O)c1F)c1c[nH]c2ncc(-c3cccnc3)cc12 | ≤ 10 |
| Cc1cccc(N(C)c2ccnc3[nH]ccc23)c1 | ≤ 10 |
| O=C(c1ccccc1F)c1c[nH]c2ncccc12 | ≤ 10 |
| CCc1cnc2[nH]cc(C(=O)c3cccc(O)c3)c2c1 | ≤ 10 |
| Cc1ccccc1C(=O)c1c[nH]c2ncc(-c3cccc(N)c3)cc12 | ≤ 10 |
| CS(=O)(=O)Nc1ccc(F)c(C(=O)c2c[nH]c3ncc(Br)cc23)c1 | ≤ 10 |
| O=C(c1cccc(O)c1F)c1c[nH]c2ncc(-c3ccccc3)cc12 | ≤ 10 |
| COC(=O)Nc1ccc(F)c(Cc2c[nH]c3ncc(-c4cccnc4)cc23)c1F | ≤ 10 |
| Nc1cccc(-c2cnc3[nH]cc(C(=O)c4ccccc4F)c3c2)c1 | ≤ 10 |
| Nc1cccc(-c2cnc3[nH]cc(C(=O)c4ccc(Cl)cc4)c3c2)c1 | ≤ 10 |
| CCCS(=O)(=O)Nc1ccc(F)c(C(=O)c2c[nH]c3ncc(Br)cc23)c1F | ≤ 10 |
| Clc1ccc(Nc2ccnc3[nH]ccc23)cc1Cl | ≤ 10 |
| O=C(Nc1ccc(Cc2c[nH]c3ncccc23)cc1)Nc1cccc(C(F)(F)F)c1 | ≤ 10 |

| Structure (SMILES) | IC50 [µM] |
| --- | --- |
| CS(=O)(=O)Nc1ccc(F)c(C(=O)c2c[nH]c3ncc(-c4cccc(C(N)=O)c4)cc23)c1 | ≤ 10 |
| O=C(c1cc(O)ccc1F)c1c[nH]c2ncc(-c3cccs3)cc12 | ≤ 10 |
| O=C(Nc1ccc(Cc2c[nH]c3ncccc23)cc1)Nc1ccc(Cl)c(C(F)(F)F)c1 | ≤ 10 |
| Cc1c(O)cccc1C(=O)c1c[nH]c2ncc(-c3cccnc3)cc12 | ≤ 10 |
| CS(=O)(=O)Nc1cccc(-c2cnc3[nH]cc(C(=O)c4c(F)ccc(NS(C)(=O)=O)c4F)c3c2)c1 | ≤ 10 |
| O=C(c1ccc(O)cc1Cl)c1c[nH]c2ncc(-c3cccs3)cc12 | ≤ 10 |
| COc1cccc(CCc2c[nH]c3ncc(-c4ccsc4)cc23)c1 | ≤ 10 |
| Brc1ccc(C=Cc2c[nH]c3ncccc23)cc1 | ≤ 10 |
| NC(=O)c1cccc(-c2cnc3[nH]cc(C(=O)c4cc(O)ccc4F)c3c2)c1 | ≤ 10 |
| O=C(c1cccc(O)c1)c1c[nH]c2ncc(Br)cc12 | ≤ 10 |
| O=C(c1ccccc1O)c1c[nH]c2ncc(-c3cccs3)cc12 | ≤ 10 |
| O=C(c1cccc(O)c1)c1c[nH]c2ncc(-c3cccs3)cc12 | ≤ 10 |
| CCCS(=O)(=O)Nc1ccc(F)c(C(=O)c2c[nH]c3ncc(Cl)cc23)c1F | ≤ 10 |
| CC(=O)Nc1cccc(-c2cnc3[nH]cc(C(=O)c4ccccc4F)c3c2)c1 | ≤ 10 |
| Nc1cccc(-c2cnc3[nH]cc(C(=O)c4cccc(Cl)c4Cl)c3c2)c1 | ≤ 10 |
| CCCNC(=O)Nc1ccc(F)c(C(=O)c2c[nH]c3ncc(-c4cccnc4)cc23)c1F | ≤ 10 |
| CS(=O)(=O)Nc1ccc(Cl)c(C(=O)c2c[nH]c3ncc(Br)cc23)c1F | ≤ 10 |
| CCCS(=O)(=O)Nc1ccc(Cl)c(C(=O)c2c[nH]c3ncc(-c4ccccc4)cc23)c1F | ≤ 10 |
| NC(=O)c1ccc(-c2cnc3[nH]cc(C(=O)c4ccccc4F)c3c2)cc1 | ≤ 10 |
| Cc1ccc(F)cc1C(=O)c1c[nH]c2ncc(-c3ccsc3)cc12 | ≤ 10 |
| CS(=O)(=O)Nc1ccc(F)c(C(=O)c2c[nH]c3ncc(-c4cccc(S(C)(=O)=O)c4)cc23)c1F | ≤ 10 |
| Cc1ccccc1C(=O)c1c[nH]c2ncc(-c3ccsc3)cc12 | ≤ 10 |
| c1cc(Nc2ccc3ncsc3c2)c2cc[nH]c2n1 | ≤ 10 |
| Cc1ccc(F)cc1C(=O)c1c[nH]c2ncc(-c3cccc(NS(C)(=O)=O)c3)cc12 | ≤ 10 |
| CCCS(=O)(=O)Nc1ccc(Cl)c(C(=O)c2c[nH]c3ncc(-c4cccnc4)cc23)c1F | ≤ 10 |
| CCS(=O)(=O)Nc1ccc(F)c(C(=O)c2c[nH]c3ncc(-c4cccnc4)cc23)c1F | ≤ 10 |

| Structure (SMILES) | IC50 [µM] |
| --- | --- |
| Nc1ccc(F)c(C(=O)c2c[nH]c3ncc(-c4cccnc4)cc23)c1F | ≤ 10 |
| CC(=O)Nc1cccc(-c2cnc3[nH]cc(C(=O)c4cccc(O)c4F)c3c2)c1 | ≤ 10 |
| CS(=O)(=O)c1cccc(-c2cnc3[nH]cc(C(=O)c4cccc(O)c4F)c3c2)c1 | ≤ 10 |
| Oc1cc(O)cc(Cc2c[nH]c3ncc(-c4ccsc4)cc23)c1 | ≤ 10 |
| NC(=O)c1cccc(-c2cnc3[nH]cc(C(=O)c4cccc(O)c4F)c3c2)c1 | ≤ 10 |
| O=C(Nc1ccc(F)c(C(=O)c2c[nH]c3ncc(-c4cccnc4)cc23)c1F)OCc1ccccc1 | ≤ 10 |
| CCCS(=O)(=O)Nc1ccc(F)c(C(=O)c2c[nH]c3ncc(-c4ccccc4)cc23)c1F | ≤ 10 |
| O=C(c1cccc(O)c1)c1c[nH]c2ncc(-c3ccsc3)cc12 | ≤ 10 |
| COc1cccc(C(=O)c2c[nH]c3ncc(-c4cccc(N)c4)cc23)c1 | ≤ 10 |
| O=C(c1cc(O)ccc1F)c1c[nH]c2ncc(-c3ccccc3)cc12 | ≤ 10 |
| CS(=O)(=O)Nc1cccc(-c2cnc3[nH]cc(C(=O)c4cc(NS(C)(=O)=O)ccc4F)c3c2)c1 | ≤ 10 |
| COc1cccc(C(=O)c2c[nH]c3ncc(-c4cccs4)cc23)c1 | ≤ 10 |
| O=C(c1ccccc1F)c1c[nH]c2ncc(-c3ccsc3)cc12 | ≤ 10 |
| O=C(c1cc(O)ccc1F)c1c[nH]c2ncc(-c3cccnc3)cc12 | ≤ 10 |
| CS(=O)(=O)Nc1cccc(-c2cnc3[nH]cc(C(=O)c4cc(O)ccc4F)c3c2)c1 | ≤ 10 |
| c1ccc2c(Cc3c[nH]c4ncccc34)cccc2c1 | ≤ 10 |
| O=C(c1cccc(F)c1F)c1c[nH]c2nccc(-c3cc(F)cc(F)c3)c12 | ≤ 10 |
| Cc1ccc(S(=O)(=O)NCc2c[nH]c3ncccc23)cc1 | ≤ 10 |
| Oc1ccc(F)c(Cc2c[nH]c3ncc(Br)cc23)c1F | ≤ 10 |
| CS(=O)(=O)Nc1cccc(-c2cnc3[nH]cc(C(=O)c4cccc(O)c4F)c3c2)c1 | ≤ 10 |
| COc1cccc(C(=O)c2c[nH]c3ncc(-c4cccnc4)cc23)c1 | ≤ 10 |
| COc1cccc(C(=O)c2c[nH]c3ncc(-c4cccc(C(N)=O)c4)cc23)c1 | ≤ 10 |
| CS(=O)(=O)Nc1ccc(F)c(C(=O)c2c[nH]c3ncc(-c4cccc(S(C)(=O)=O)c4)cc23)c1 | ≤ 10 |
| Cc1c(O)cccc1C(=O)c1c[nH]c2ncc(-c3ccccc3)cc12 | ≤ 10 |

These molecules were tested against EGFR (human) (UniProt P00533) (assay: not given).
Chain of EGFR (human) (P00533 whole entry, looked up): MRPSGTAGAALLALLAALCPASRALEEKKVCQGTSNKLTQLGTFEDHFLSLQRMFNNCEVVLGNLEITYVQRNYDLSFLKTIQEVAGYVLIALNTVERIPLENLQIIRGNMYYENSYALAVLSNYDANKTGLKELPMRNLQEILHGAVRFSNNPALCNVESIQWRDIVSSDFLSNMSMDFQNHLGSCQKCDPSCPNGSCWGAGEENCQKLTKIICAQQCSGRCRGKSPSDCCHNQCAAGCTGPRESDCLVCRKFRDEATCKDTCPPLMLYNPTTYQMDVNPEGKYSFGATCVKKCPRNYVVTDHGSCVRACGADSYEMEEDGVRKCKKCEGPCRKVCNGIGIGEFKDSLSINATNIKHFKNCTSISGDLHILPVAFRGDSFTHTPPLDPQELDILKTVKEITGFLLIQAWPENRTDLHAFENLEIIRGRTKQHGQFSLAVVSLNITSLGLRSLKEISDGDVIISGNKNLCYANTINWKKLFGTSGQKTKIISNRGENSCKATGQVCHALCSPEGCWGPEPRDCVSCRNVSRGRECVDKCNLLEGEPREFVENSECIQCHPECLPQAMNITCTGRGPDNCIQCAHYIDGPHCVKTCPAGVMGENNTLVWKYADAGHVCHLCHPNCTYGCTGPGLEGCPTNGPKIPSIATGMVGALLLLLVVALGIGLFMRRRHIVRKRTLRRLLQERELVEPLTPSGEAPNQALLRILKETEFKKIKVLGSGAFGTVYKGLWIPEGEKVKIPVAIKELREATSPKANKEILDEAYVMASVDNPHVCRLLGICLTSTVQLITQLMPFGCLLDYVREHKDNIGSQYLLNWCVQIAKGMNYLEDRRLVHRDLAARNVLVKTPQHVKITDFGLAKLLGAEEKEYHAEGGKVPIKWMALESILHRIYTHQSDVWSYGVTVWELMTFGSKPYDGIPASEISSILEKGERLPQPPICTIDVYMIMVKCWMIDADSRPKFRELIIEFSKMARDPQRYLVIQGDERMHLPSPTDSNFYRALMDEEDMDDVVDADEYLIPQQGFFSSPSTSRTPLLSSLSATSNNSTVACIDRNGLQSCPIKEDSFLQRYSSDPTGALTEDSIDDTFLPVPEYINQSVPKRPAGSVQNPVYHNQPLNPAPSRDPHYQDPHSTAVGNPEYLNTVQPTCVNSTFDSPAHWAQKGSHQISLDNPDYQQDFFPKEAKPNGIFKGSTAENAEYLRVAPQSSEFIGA

| Structure (SMILES) | IC50 [µM] |
| --- | --- |
| CCCS(=O)(=O)Nc1ccc(F)c(C(=O)c2c[nH]c3ncc(-c4ccc(OC)cc4)cc23)c1F | ≤ 10 |
| O=C(Nc1ccc(F)c(C(O)c2c[nH]c3ncc(-c4cccnc4)cc23)c1F)OCc1ccccc1 (stereo not given) | ≤ 10 |
| COc1ccc(-c2cnc3[nH]cc(C#Cc4ccccc4)c3c2)cc1OC | ≤ 10 |
